Results published in patent publication EP2771349B1, “BIO[…] FOR DETERMINATION OF PEPTIDE BINDING” (Iogenetics, LLC., priority 2011, dated 2013).

Experiment: Principal components analysis of amino acid physical properties from 31 studies
Conditions: for Prin1: first principal component, index of amino acid polarity or hydrophobicity, most hydrophobic highest; for Prin2: second principal component, related to size or volume, smallest has highest score; for Prin3: third principal component
From the text: In some cases, principal components of amino acids are utilized to accurately predict binding affinities of sub-sequences of amino acids within the proteins to all MHC-I and MHC-II receptors. Principal Components Analysis is a mathematical process that is used in many different scientific fields and which reduces the dimensionality of a set of data. (Bishop, C.M., Neural Networks for Pattern Recognition. Oxford University Press, Oxford 1995. Bouland, H. and Kamp,Y., Biological Cybernetics 1988. 59: 291-294.). Derivation of principal components is a linear transformation that locates directions of maximum variance in the original input data, and rotates the data along these axes. Typically, the first several principal components contain the most information. Principal components is particularly useful for large datasets with many different variables. Using principal components provides a way to picture the structure of the data as completely as possible by using as few variables as possible. For n original variables, n principal components are formed as follows: The first principal component is the linear combination of the standardized original variables that has the greatest possible variance. Each subsequent principal component is the linear combination of the standardized original variables that has the greatest possible variance and is uncorrelated with all previously defined components. Further, the principal components are scale-independent in that they can be developed from different types of measurements. For example, datasets from HPLC retention times (time units) or atomic radii ([…]) can be consolidated to produce principal components. Another characteristic is that principal components are weighted appropriately for their respective contributions to the response and one common use of principal components is to develop appropriate weightings for regression parameters in multivariate regression analysis. Outside the field of immunology, principal components analysis (PCA) is most widely used in regression analysis. Initial tests were conducted using the principal components in a multiple regression partial least squares (PLS) approach (Wold, S., Sjorstrom,M., and Eriksson,L., Chemometrics and Intelligent Laboratory Systems 2001. 58: 109-130.). Principal component analysis can be represented in a linear network. PCA can often extract a very small number of components from quite high-dimensional original data and still retain the important structure.
Accordingly, in some cases physical properties of amino acids are used for subsequent analysis. The compiled physical properties are available at a proteomics resource website (expasy.org/tools/protscale.html). In some cases, the data for each of the 20 different amino acids from these studies are tabulated, resulting in 20 x 31 different datapoints, each providing a unique estimate of a physical characteristic of that amino acid. The power of principal component analysis lies in the fact that the results of all of these studies can be combined to produce a set of mathematical properties of the amino acids which have been derived by a wide array of independent methodologies. The patterns derived in this way are similar to those of Wold et. al. but the absolute numbers are different. The physicochemical properties derived in the studies used for this calculation are shown in (Table 2). […] All subsequent work described herein is based on use of the first three principal components.
From this it can be seen that the first principal component (Prin1) is an index of amino acid polarity or hydrophobicity; the most hydrophobic amino acids have the highest numerical value. The second principal component (Prin2) is related to the size or volume of the amino acid, with the smallest having the highest score. […]

Row | Structure (SMILES) | Prin1 | Prin2 | Prin3
1 | CC(N)C(=O)O (stereo not drawn) [A] | 0.72 | 2.48 | 1.42
2 | N=C(N)NCCCC(N)C(=O)O (stereo not drawn) [R] | -6.30 | -2.93 | -0.91
3 | CC(O)C(N)C(=O)O (stereo not drawn) [T] | -1.42 | 0.80 | 0.94
4 | NC(Cc1c[nH]cn1)C(=O)O (stereo not drawn) [H] | -2.55 | -1.00 | -1.94
5 | NC(CC(=O)O)C(=O)O (stereo not drawn) [D] | -6.04 | 0.03 | -0.18
6 | NC(=O)CC(N)C(=O)O (stereo not drawn) [N] | -4.35 | 0.21 | 0.30
7 | O=C(O)C1CCCN1 (stereo not drawn) [P] | -0.03 | -0.36 | 1.87
8 | NCCCCC(N)C(=O)O (stereo not drawn) [K] | -6.68 | -1.32 | 1.16
9 | NC(=O)CCC(N)C(=O)O (stereo not drawn) [Q] | -3.97 | -0.47 | 0.15
10 | NC(CCC(=O)O)C(=O)O (stereo not drawn) [E] | -5.70 | 0.34 | -1.46
11 | NCC(=O)O [G] | -0.76 | 3.08 | 1.21
